Where “and” joins values, the source holds several entries; their conditions need not be identical. Identical values can stand only once.
Test system: 947758-054-R-J2-PDC spheroid growth, percent test/control
Experiment: Anticancer human tumor 947758-054-R-J2-PDC patient-derived colon adenocarcinoma cell line growth inhibition [CLK]
Conditions: spheroids with HUVEC and MSC; for viability, T/C: stronger effect = lower value
Procedure, shortened: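 Patient-derived tumor cells grown as complex spheroids with HUVEC endothelial cells and mesenchymal stem cells, treated with drug combinations. Concentrations descend in half-log steps from near clinical Cmax, or from 10 microM if Cmax unknown.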

[1] = curve of first compound, second compound 0.0316 µM
[2] = curve of first compound, second compound 0.1 µM
[3] = curve of first compound, second compound 0.316 µM
[4] = curve of first compound, second compound 1 µM
[5] = curve of first compound, second compound 3.16 µM
[6] = curve of first compound, second compound 10 µM
[7] = second compound 0.0316 µM, first compound 0.0316 µM
[8] = second compound 0.0316 µM, first compound 0.1 µM
[9] = second compound 0.0316 µM, first compound 0.316 µM
[10] = second compound 0.0316 µM, first compound 1 µM
[11] = second compound 0.0316 µM, first compound 3.16 µM
[12] = second compound 0.0316 µM, first compound 10 µM
[13] = second compound 0.1 µM, first compound 0.0316 µM
[14] = second compound 0.1 µM, first compound 0.1 µM
[15] = second compound 0.1 µM, first compound 0.316 µM
[16] = second compound 0.1 µM, first compound 1 µM
[17] = second compound 0.1 µM, first compound 3.16 µM
[18] = second compound 0.1 µM, first compound 10 µM
[19] = second compound 0.316 µM, first compound 0.0316 µM
[20] = second compound 0.316 µM, first compound 0.1 µM
[21] = second compound 0.316 µM, first compound 0.316 µM
[22] = second compound 0.316 µM, first compound 1 µM
[23] = second compound 0.316 µM, first compound 3.16 µM
[24] = second compound 0.316 µM, first compound 10 µM
[25] = second compound 1 µM, first compound 0.0316 µM
[26] = second compound 1 µM, first compound 0.1 µM
[27] = second compound 1 µM, first compound 0.316 µM
[28] = second compound 1 µM, first compound 1 µM
[29] = second compound 1 µM, first compound 3.16 µM
[30] = second compound 1 µM, first compound 10 µM
[31] = second compound 3.16 µM, first compound 0.0316 µM
[32] = second compound 3.16 µM, first compound 0.1 µM
[33] = second compound 3.16 µM, first compound 0.316 µM
[34] = second compound 3.16 µM, first compound 1 µM
[35] = second compound 3.16 µM, first compound 3.16 µM
[36] = second compound 3.16 µM, first compound 10 µM
[37] = second compound 10 µM, first compound 0.0316 µM
[38] = second compound 10 µM, first compound 0.1 µM
[39] = second compound 10 µM, first compound 0.316 µM
[40] = second compound 10 µM, first compound 1 µM
[41] = second compound 10 µM, first compound 3.16 µM
[42] = second compound 10 µM, first compound 10 µM
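Further: spheroids exposed to compounds for one week before readout.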
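Wherever viability, T/C is given: 100% = DMSO vehicle control wells.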

**Q.** For `COc1cccc2c1C(=O)c1c(O)c3c(c(O)c1C2=O)CC(O)(C(=O)CO)CC3OC1CC(N)C(O)C(C)O1` (stereo unspecified) + CN1CCN(c2cc(C(=O)Nc3cc4cc(-c5cnn(C)c5)ccc4cn3)ccn2)CC1, which IC50 [1] is on record?
**A.** The IC50 was 91.3 nM.

**Q.** What about the IC50 [2] of the same compound?
**A.** The IC50 was less than 31.6 nM.

**Q.** And the IC50 [3]?
**A.** The IC50 was less than 31.6 nM.

**Q.** What about the IC50 [4] of the same compound?
**A.** Its IC50 is less than 31.6 nM.

**Q.** And the IC50 [5]?
**A.** Its IC50 is less than 31.6 nM.

**Q.** What about the IC50 [6] of the same compound?
**A.** The IC50 was less than 31.6 nM.

**Q.** What about the viability, T/C [7] of the same compound?
**A.** Its viability, T/C is 100%.

**Q.** What about the viability, T/C [8] of the same compound?
**A.** Its viability, T/C is 38.9%.

**Q.** What about the viability, T/C [9] of the same compound?
**A.** Its viability, T/C is 33.2%.

**Q.** And the viability, T/C [10]?
**A.** Its viability, T/C is 4.76%.

**Q.** What about the viability, T/C [11] of the same compound?
**A.** The viability, T/C was 0.5%.

**Q.** What about the viability, T/C [12] of the same compound?
**A.** Its viability, T/C is 4.61%.

**Q.** What about the viability, T/C [13] of the same compound?
**A.** The viability, T/C was 44.3%.

**Q.** What about the viability, T/C [14] of the same compound?
**A.** The viability, T/C was 35.4%.

**Q.** What about the viability, T/C [15] of the same compound?
**A.** Its viability, T/C is 21.1%.

**Q.** What about the viability, T/C [16] of the same compound?
**A.** Its viability, T/C is 1.67%.

**Q.** What about the viability, T/C [17] of the same compound?
**A.** Its viability, T/C is 0.35%.

**Q.** What about the viability, T/C [18] of the same compound?
**A.** The viability, T/C was 7.75%.

**Q.** And the viability, T/C [19]?
**A.** Its viability, T/C is 1.3%.

**Q.** What about the viability, T/C [20] of the same compound?
**A.** The viability, T/C was 1.49%.

**Q.** What about the viability, T/C [21] of the same compound?
**A.** The viability, T/C was 0.27%.

**Q.** What about the viability, T/C [22] of the same compound?
**A.** The viability, T/C was 0.21%.

**Q.** What about the viability, T/C [23] of the same compound?
**A.** Its viability, T/C is 1.68%.

**Q.** And the viability, T/C [24]?
**A.** Its viability, T/C is 8.73%.

**Q.** What about the viability, T/C [25] of the same compound?
**A.** The viability, T/C was 0.12%.

**Q.** And the viability, T/C [26]?
**A.** The viability, T/C was 1.01%.

**Q.** And the viability, T/C [27]?
**A.** The viability, T/C was 0.13%.

**Q.** What about the viability, T/C [28] of the same compound?
**A.** The viability, T/C was 0.11%.

**Q.** What about the viability, T/C [29] of the same compound?
**A.** The viability, T/C was 2.81%.

**Q.** What about the viability, T/C [30] of the same compound?
**A.** Its viability, T/C is 6.86%.

**Q.** And the viability, T/C [31]?
**A.** The viability, T/C was 0.14%.

**Q.** And the viability, T/C [32]?
**A.** The viability, T/C was 0.96%.

**Q.** And the viability, T/C [33]?
**A.** Its viability, T/C is 1.03%.

**Q.** What about the viability, T/C [34] of the same compound?
**A.** Its viability, T/C is 0.15%.

**Q.** And the viability, T/C [35]?
**A.** Its viability, T/C is 0.83%.

**Q.** What about the viability, T/C [36] of the same compound?
**A.** The viability, T/C was 7.28%.

**Q.** And the viability, T/C [37]?
**A.** The viability, T/C was 0.46%.

**Q.** What about the viability, T/C [38] of the same compound?
**A.** The viability, T/C was 1.26%.

**Q.** And the viability, T/C [39]?
**A.** Its viability, T/C is 0.8%.

**Q.** And the viability, T/C [40]?
**A.** The viability, T/C was 0.22%.

**Q.** And the viability, T/C [41]?
**A.** The viability, T/C was 2.33%.

**Q.** What about the viability, T/C [42] of the same compound?
**A.** The viability, T/C was 7.23%.

**Q.** What does the source list for `C=C(F)C(=O)N1CCN(c2nc(OCC3CCCN3C)nc3c2CCN(c2cccc4cccc(Cl)c24)C3)CC1CC#N` (stereo unspecified) + CN1CCN(c2cc(C(=O)Nc3cc4cc(-c5cnn(C)c5)ccc4cn3)ccn2)CC1?
**A.** IC50 [1]: 6610 nM; IC50 [2]: 7050 nM; IC50 [3]: < 31.6 nM; IC50 [4]: < 31.6 nM; IC50 [5]: < 31.6 nM; IC50 [6]: < 31.6 nM; viability, T/C [7]: 122%; viability, T/C [8]: 116%; viability, T/C [9]: 109%; viability, T/C [10]: 107%; viability, T/C [11]: 146%; viability, T/C [12]: 10.6%; viability, T/C [13]: 149%; viability, T/C [14]: 201%; viability, T/C [15]: 181%; viability, T/C [16]: 220%; viability, T/C [17]: 154%; viability, T/C [18]: 4.69%; viability, T/C [19]: 4.5%; viability, T/C [20]: 5.53%; viability, T/C [21]: 5.34%; viability, T/C [22]: 6.82%; viability, T/C [23]: 8.16%; viability, T/C [24]: 1.5%; viability, T/C [25]: 0.18%; viability, T/C [26]: 1.06%; viability, T/C [27]: 0.17%; viability, T/C [28]: 2.25%; viability, T/C [29]: 0.12%; viability, T/C [30]: 0.96%; viability, T/C [31]: 1.29%; viability, T/C [32]: 0.25%; viability, T/C [33]: 0.21%; viability, T/C [34]: 0.24%; viability, T/C [35]: 0.14%; viability, T/C [36]: 0.12%; viability, T/C [37]: 1.57%; viability, T/C [38]: 1.69%; viability, T/C [39]: 0.29%; viability, T/C [40]: 0.31%; viability, T/C [41]: 1.29%; viability, T/C [42]: 1.41%

**Q.** Which results are given for `C=C(F)C(=O)N1CCN(c2nc(OCC3CCCN3C)nc3c2CCN(c2cccc4cccc(Cl)c24)C3)CC1CC#N` (stereo unspecified)?
**A.** viability, T/C (compound 0.0316 µM): 97% and 92.3%; viability, T/C (compound 0.1 µM): 89.9% and 87.2%; viability, T/C (compound 0.316 µM): 87% and 84%; viability, T/C (compound 1 µM): 95.5% and 86.5%; viability, T/C (compound 3.16 µM): 144% and 135%; viability, T/C (compound 10 µM): 20% and 21.4%; IC50 (curve of compound): 6600 nM and 6470 nM

Reference: PubChem BioAssay AID2060605 (Molecular Pharmacology Branch, DTP, NCI, 2025)
